Experimental data from patent US20100099663A1, “4-TRIFLUOROMETHOXYPHENOXYBENZOL-4'-SULFONIC ACIDS, METHOD FOR THE PRODUCTION AND USE THEREOF IN MEDICAMENTS” (SANOFI-AVENTIS DEUTSCHLAND GMBH, priority 2004, published 2010).

Experiments:
[1] = biological target: T1, catalytic domain of human collagenase-3 (MMP-13) (Homo sapiens, UniProt P45452); assay: Enzymatic activity of the catalytic domain of human collagenase-3 (MMP-13), fluorogenic substrate; format: biochemical; conditions: APMA-activated proenzyme, pH 7.5, read-out: Matrix metalloproteinase inhibition MMP-13 (IC50)
T1 construct: Determination of the Enzymatic Activity of the Catalytic Domain of Human Collagenase-3 (MMP-13); purchased INVITEK, Berlin 30 100 803
Description: Determination of the Enzymatic Activity of the Catalytic Domain of Human Collagenase-3 (MMP-13).
Activation of the proenzyme:
2 parts by volume of proenzyme were incubated with 1 part by volume of APMA solution at 37° C. for 1.5 hours. The APMA solution was prepared from a 10 mmol/l p-aminophenylmercuric acetate solution in 0.1 mmol/l NaOH by dilution with 3 parts by volume of Tris/HCl buffer pH 7.5 (see below). The pH was adjusted to between 7.0 and 7.5 by adding 1 mmol/l HCl. After activation of the enzyme it was diluted with the Tris/HCl buffer to a concentration of 1.67 μg/ml.
The enzymic activity was measured by incubating 10 μl of enzyme solution with 10 μl of a 3% strength (v/v) buffered dimethyl sulfoxide solution (reaction 1) for 15 minutes. The enzyme inhibitor activity was measured by incubating 10 μl of enzyme solution with 10 μl of a 3% strength (v/v) buffered dimethyl sulfoxide solution which contained the enzyme inhibitor (reaction 2).
The enzymic reaction both in the case of reaction 1 and in the case of reaction 2 was followed after addition of 10 μl of a 3% strength (v/v) aqueous dimethyl sulfoxide solution which contains 0.075 mmol/l of the substrate by fluorescence spectroscopy (328 nm (extinction)/393 nm (emission)).
The enzymic activity has been presented as increase in extinction/minute. The effect of the inhibitor was calculated as percentage inhibition by the following formula:
% inhibition=100−[(increase in extinction/minute in reaction 2)/(increase in extinction/minute in reaction 1)×100].
The IC50, which is the concentration of inhibitor which is necessary for 50% inhibition of the enzymic activity, was determined graphically by plotting the percentage inhibitions at various inhibitor concentrations.
The buffer solution contained 0.05% Brij (Sigma, Deisenhofen, Germany) and 0.1 mol/l of Tris/HCl, 0.1 mol/l of NaCl, 0.01 mol/l of CaCl2 (pH=7.5).
The enzyme solution contained 1.67 μg/ml of the enzyme domain. The substrate solution contained 0.075 mmol/l of the fluorogenic substrate (7-methoxycoumarin-4-yl)acetyl-Pro-Leu-Gly-Leu-3-(2′,4′-dinitrophenyl)-L-2,3-diaminopropionyl-Ala-Arg-NH2 (Bachem, Heidelberg, Germany).

[2] = biological target: T2, catalytic domain of human stromelysin (MMP-3) (Homo sapiens, UniProt P08254); assay: Enzymatic activity of the catalytic domain of human stromelysin (MMP-3), fluorogenic substrate; format: biochemical; conditions: pH 7.5, 15 min preincubation, read-out: Matrix metalloproteinase inhibition MMP-3 (IC50)
T2 construct: Enzymatic Activity of the Catalytic Domain of Human Stromelysin (MMP-3); made in house
T2 sequence (P08254 100-272 limits assumed): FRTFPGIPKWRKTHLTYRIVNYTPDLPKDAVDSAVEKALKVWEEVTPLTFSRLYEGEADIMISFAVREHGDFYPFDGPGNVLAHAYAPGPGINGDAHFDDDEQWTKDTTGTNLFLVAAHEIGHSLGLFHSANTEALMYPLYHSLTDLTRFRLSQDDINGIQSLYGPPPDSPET
Description: (§1) Preparation and Determination of the Enzymatic Activity of the Catalytic Domain of Human Stromelysin (MMP-3) and of Neutrophil Collagenase (MMP-8).
(§2) The two enzymes stromelysin (MMP-3) and neutrophil collagenase (MMP-8) were prepared by the method of Ye et al. (Biochemistry; 31 (1992) pages 11231-11235). The enzymic activity or the effect of the enzyme inhibitor was measured by incubating 10 μl of enzyme solution with 10 μl of a 3% strength (v/v) buffered dimethyl sulfoxide solution which contained the enzyme inhibitor where appropriate, for 15 minutes. After addition of 10 μl of a 3% strength (v/v) aqueous dimethyl sulfoxide solution which contained 1 mmol/l of the substrate, the enzymic reaction was followed by fluorescence spectroscopy (328 nm (ex)/393 nm(em)).
(§3) The enzymic activity is presented as increase in extinction/minute. The IC50 values listed in Table 1 were determined as the inhibitor concentrations leading in each case to 50% inhibition of the enzyme.
(§4) The buffer solution contained 0.05% Brij (Sigma, Deisenhofen, Germany) and 0.1 mol/l of Tris/HCl, 0.1 mol/l of NaCl, 0.01 mol/l of CaCl2 and 0.1 mol/l of piperazine-N,N′-bis[2-ethanesulfonic acid] (pH=7.5).
(§5) The MMP-3 enzyme solution contained 2.3 μg/ml and the MMP-8 enzyme solution 0.6 μg/ml of one of the enzyme domains prepared by the method of Ye et al. The substrate solution contained 1 mmol/l of the fluorogenic substrate (7-methoxycoumarin-4-yl)acetyl-Pro-Leu-Gly-Leu-3-(2′,4′-dinitrophenyl)-L-2,3-diaminopropionyl-Ala-Arg-NH2 (Bachem, Heidelberg, Germany).

[3] = Pharmacokinetic measurements in mice after oral administration (n-in-one study); format: in vivo; conditions: male C57/BL mice, oral by gavage about 7.5 mg per kg in PEG400/water 1:1, n-in-one, plasma
Description: In each case 14 or 16 male C57/BL mice with an average weight of 20 to 28 g were used for the investigation, and divided into two groups. The animals had free access to feed and water. The substances were dissolved in PEG400/water 1:1 and administered orally by gavage in a concentration of about 7.5 mg per kg (equivalent to about […] per animal). In each case, 2 novel compounds and one comparative compound were previously dissolved separately, mixed and administered simultaneously (n-in-one study). Blood samples were taken after 0.25, 0.5, 1, 2, 4, 6, 8 and 24 h, and the substance concentration was determined quantitatively by HPLC-MS under standardized conditions as described below. The individual results were initially combined within the two groups and then the average was formed therefrom. The pharmacokinetic parameters are calculated using the noncompartmental model (extravascular input).
Quantification took place by HPLC-MS-MS. An HPLC system from Agilent (1100) was used, coupled to a PE-Sciex API 4000 (triple quadruple mass spectrometer). The column used was a ProdigyR 5μ ODS, flow rate […], injected volumes 16 μl. Eluent: acetonitrile-0.002% ammonium formate. Detection took place in MS/MS mode (multiple reaction monitoring) focussed on Q1 and selective masses (fragment) filtration on Q3.
Workup of the plasma samples beforehand took place as follows: admixture of 25 μl of 60/40 acetonitrile/0.1% formate plus 25 μl of internal standard 5 μg/ml in the same solvent, plus 25 μl of blank plasma or sample plasma, plus 200 μl of acetonitrile. Mixing for 5 min was followed by centrifugation (3 min, 5000 g) and then pipetting of 200 μl into the measurement vessels.
Cmax is the maximum plasma concentration reached at one of the sampling times. AUC “area under the curve”, time course of the decrease in concentration and Cmax determine the magnitude of the value.

[4] = biological target: T3, catalytic domain of neutrophil collagenase (MMP-8) (Homo sapiens, UniProt P22894); assay: Enzymatic activity of the catalytic domain of neutrophil collagenase (MMP-8), fluorogenic substrate; format: biochemical; conditions: pH 7.5, 15 min preincubation, read-out: Matrix metalloproteinase inhibition MMP-8 (IC50)
T3 construct: Catalytic Domain of Human Stromelysin (MMP-3) and of Neutrophil Collagenase (MMP-8); made in house
T3 sequence (P22894 100-262 limits assumed): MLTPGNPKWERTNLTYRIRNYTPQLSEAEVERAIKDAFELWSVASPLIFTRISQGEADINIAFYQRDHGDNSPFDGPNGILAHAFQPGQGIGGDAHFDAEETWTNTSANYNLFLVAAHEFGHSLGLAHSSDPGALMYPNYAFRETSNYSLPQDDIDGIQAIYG
Description: as §1, §2, §3, §4, §5

Row | Molecule | IC50 [1] [nM] | IC50 [2] [nM] | AUC [3] [µg·h/mL] | Cmax [3] [µg/mL] | t½ [3] [h] | IC50 [4] [nM]
1 | COc1ccc(Oc2ccc(S(=O)(=O)N3CCc4ccccc4C3C(=O)NO)cc2)cc1 (stereo not drawn) [Example 9, 2-[4-(4-Methoxyphenoxy)benzenesulfonyl]-1,2,3,4-tetrahydroisoquinoline-1-N-hydroxycarboxamide, reference compound] | 2.2 | 23 | 0.25 | 0.45 | 1.5 | 2.3
2 | O=C(NO)C1C2CCOC2CCN1S(=O)(=O)c1ccc(Oc2ccc(OC(F)(F)F)cc2)cc1 (stereo not drawn) [Example 6, 5-[4-(4-Trifluoromethoxyphenoxy)benzenesulfonyl]octahydrofuro[3,2-c]pyridine-4-(N-hydroxy)carboxamide] | 2 | 24 |  |  |  | 4
3 | O=C(O)C1c2ccccc2CCN1S(=O)(=O)c1ccc(Oc2ccc(OC(F)(F)F)cc2)cc1 (stereo not drawn) [Example 10, 2-[4-(4-Trifluorophenoxy)benzenesulfonyl]-1,2,3,4-tetrahydroisoquinoline-1-carboxylic acid] |  |  | 0.16 | 0.24 | 1.8 | 
4 | O=C(NO)C1C2CCCCC2CCCN1S(=O)(=O)c1ccc(Oc2ccc(OC(F)(F)F)cc2)cc1 (stereo not drawn) [Example 7, 2-[4-(4-Trifluoromethoxyphenoxy)benzenesulfonyl]decahydrobenzo[c]azepine-1-(N-hydroxy)carboxamide] | 2 | 24 |  |  |  | 4
5 | 5-[4-(4-Trifluoromethoxyphenoxy)benzenesulfonyl]octahydrofuro[3,2-c]pyridine-4-carboxylic acid [Example 5] | 240 | 380 |  |  |  | 210
6 | O=C(NO)C1c2ccccc2CCN1S(=O)(=O)c1ccc(Oc2ccc(OC(F)(F)F)cc2)cc1 (stereo not drawn) [Example 3, 2-[4-[4-Trifluoromethoxyphenoxy)benzenesulfonyl]-1,2,3,4-tetrahydroisoquinoline-1-(N-hydroxy)carboxamide] | 2 | 28 | 2.23 | 1.35 | 6.6 | 3.6
7 | O=C(NO)C1C2CCCCC2CCN1S(=O)(=O)c1ccc(Oc2ccc(OC(F)(F)F)cc2)cc1 (stereo not drawn) [Example 4, 2-[4-(4-Trifluoromethoxyphenoxy)benzenesulfonyl]decahydroisoquinoline-1-(N-hydroxy)carboxamide] | 4 | 69 |  |  |  | 14
